Where two headings read alike, the source gives them in different places.
Tests used:
[1] = Urinary excretion and metabolic fate of MTCA in rats; assay type: in vivo
From the text: We examined cysteine (the natural “L’ form), a semi-essential sulfhydryl amino acid, as a sequestering agent for acetaldehyde (Nagasawa et al., 1975). Indeed, cysteine readily condensed with acetaldehyde in aqueous solution to form a cyclic product, 2-methylthiazolidine-4 carboxylic acid (MTCA). […] We, therefore, prepared and administered radio-labeled MTCA (^14C at the 2-position) to a rat to follow its metabolic course (Nagasawa et al., 1984).

acetaldehyde = assay: MTCG in urine of rats treated with ethanol, disulfiram and CG or CbG; conditions: for oral bioavailability (in words): inferred from urinary MTCG excretion
Protocol: In the first study, rats were administered disulfiram, an ALDH inhibitor and alcohol deterrent drug used to inhibit the metabolism of ethanol at the acetaldehyde stage, thus producing an adverse reaction that discourages further alcohol drinking (reviewed in Wikipedia, 2017). Treatment of rats with disulfiram causes a buildup of acetaldehyde in blood (Nagasawa et al, 1978). The rats were then administered CbG, orally, to determine whether CbG, following its in vivo conversion to CG, can sequester the acetaldehyde produced in the disulfiram-treated rats to a product that is excreted into the urine. Note that CbG in vivo may be reduced 2 CG. The product expected from this sequestration reaction is MTCG (vide supra). The MTCG in rat urine, collected over 24 hours following the ethanol dose, was quantitatively analyzed by LC/MS.

isoamyl aldehyde = conditions: for BTCG excreted in urine: LC/MS
From the text: In the second study, isoamyl alcohol replaced ethanol, and cyanamide, another clinically-used ALDH inhibitor (Tottmar et al., 1977), replaced disulfiram to block the further metabolism of isoamyl aldehyde derived from isoamyl alcohol (FIG. 3). Isoamyl alcohol is the most abundant small, branched-chain alcohol congener present in bourbon (Damrau and Liddy, 1960). […] The excreted product in urine here would be 2-isoobutylthiazolidine-4-carbonylglycine, viz., BTCG (FIG. 1). The urines were analyzed for BTCG by LC/MS as above.

[2] = Stability of MTCG in 0.1 N HCl; assay type: physicochemical
From the text: Although identified in urine, the long-term stability of MTCG in urine is still a question. MTCG is found to be stable in 0.1 N HCl, so we plan to collect the rat urine in acidified containers on ice. Presence of MTCG will be determined using a HPLC/MS method to obtain quantitative data of MTCG in rat urine.

[3] = rat biological fluids; cited from earlier work

N[C@@H](CS)C(=O)O [L-cysteine]
MTCA in urine after ethanol and L-cysteine ([1]; rats administered ethanol and L-cysteine): could not find MTCA in the urine

CC1NC(C(=O)O)CS1 (centres unmarked) [MTCA, 2-methylthiazolidine-4 carboxylic acid]
metabolic fate of radiolabel ([1]; rat, in vivo): most of the radiolabel appeared as expired ^14CO2 | MTCA in urine after administration of MTCA ([1]; rats, MTCA 400 mg/kg): no MTCA in the urine

NC(CSSCC(N)C(=O)NCC(=O)O)C(=O)NCC(=O)O (centres unmarked) [CbG, cystinyl-bis-glycine]
urinary excretion of MTCG relative to CG administration (acetaldehyde; rats given disulfiram and ethanol, oral CbG (Group B) vs CG (Group A), urine collected over 24 hours, LC/MS): 4.25 times greater | oral bioavailability (in words) (acetaldehyde; rats): more orally bioavailable than CG | BTCG excreted in urine (isoamyl aldehyde; Group A: cyanamide, isoamyl alcohol and CbG): excreted BTCG in the urine, albeit minimally | condition of animals (isoamyl aldehyde; Group A: rats receiving cyanamide, isoamyl alcohol and CbG, group without CbG was comatose (3 of 7) with one death): normal although hypoactive | BTCG excreted in urine (isoamyl aldehyde; Group C: isoamyl alcohol and CbG, no cyanamide): no BTCG could be detected in urine | condition of animals (isoamyl aldehyde; Group C: rats receiving isoamyl alcohol and CbG, no cyanamide): normal but more active | urinary excretion of BTCG compared to MTCG of the first study (isoamyl aldehyde; cyanamide, CbG, isoamyl alcohol vs disulfiram, CbG, ethanol (nanograms of BTCG vs. micrograms of MTCG)): more than 3 orders of magnitude lower

N[C@@H](CS)C(=O)NCC(=O)O [CG, cysteinylglycine]
urinary MTCG excretion, CG group (Group A) compared with disulfiram and ethanol only (Group C) (acetaldehyde; rats, disulfiram and ethanol, 24 hour urine): not statistically significant | oral bioavailability (in words) (acetaldehyde; rats): poor oral bioavailability

CC1NC(C(=O)NCC(=O)O)CS1 (centres unmarked) [MTCG, 2-methylthiazolidine-4-carbonylglycine]
stability in 0.1 N HCl [2]: stable | stability in biological fluids of rats, including urine [3]: stable

— patent US11717554B2, “Method for preventing or treating hangover symptom(s) associated with consumption of alcoholic beverage(s)” (MAX R&D LLC, priority 2019, dated 2023)
